# Tests used:
# GtfC = GtfC (Streptococcus mutans serotype c (strain ATCC 700610 / UA159), UniProt P13470); experiment: Zymographic assay on GtfC from S. mutans GtfBD mutants; assay type: biochemical; conditions: 25 μM
# Procedure: FIGS. 3A-3C show Gtf patterns of S. mutans UA159 and its mutant variants. Culture supernatants were prepared from S. mutans UA159 and gtf double mutants, and then subjected to SDS-PAGE analysis with equivalent amount of proteins in each lane. […] The intensity of the bands were quantified using ImageJ in comparison to DMSO.
# Supernatants containing Gtf proteins prepared from S. mutans bacterial cultures were subjected to SDS-PAGE analysis and zymographic assay. […] The same amount of the protein sample was used as controls and visualized by protein staining (FIG. 3A, top panels). The lead compounds were also tested against individual Gtfs using supernatant proteins harvested from cultures of various double mutants.
# Construction of S. mutans Gtfs mutants. GtfB, GtfC single mutant, and GtfBC double mutant in which gtf was replaced with a kanamycin resistance cassette, aphA3 (encoding an aminoglycoside phosphotransferase), were gifts from Dr. Robert Burne's Laboratory, University of Florida, Gainesville, Fla. The GtfD mutant was constructed by an overlapping PCR ligation strategy using an erythromycin resistance cassette isolated from the IFDC2 cassette (Xie, Z., Okinaga, T., Qi, F., Zhang, Z. & Merritt, J. Cloning-independent and counterselectable markerless mutagenesis system in Streptococcus mutans. Appl Environ Microbiol 77, 8025-8033 (2011)).
# [1] = system: Aggregatibacter actinomycetemcomitans VT1169; experiment: Growth of Aggregatibacter actinomycetemcomitans; assay type: cell-based; conditions: 200 μM
# Procedure: Cell viability of S. mutans, S. gordonii, S. sanguinis, Aggregatibacter actinomycetemcomitans and Actinomyces. […] The number of colony-forming units (CFU) per milliliter of each sample treated with selected compounds at different concentrations was enumerated after incubation for 24 h at 37° C. and compared to the values obtained from the DMSO control group. Overnight broth cultures were transferred by 1:50 dilutions into fresh THB medium and were allowed to grow until mid-exponential phase (OD470 nm 0.6) before transfer to 96-well plates containing desired concentration of the compound. After 16 h incubation, bacterial growth was measured at OD470, and normalized to the DMSO control (100%).
# Sequence of GtfC (P13470 35-1455 limits assumed): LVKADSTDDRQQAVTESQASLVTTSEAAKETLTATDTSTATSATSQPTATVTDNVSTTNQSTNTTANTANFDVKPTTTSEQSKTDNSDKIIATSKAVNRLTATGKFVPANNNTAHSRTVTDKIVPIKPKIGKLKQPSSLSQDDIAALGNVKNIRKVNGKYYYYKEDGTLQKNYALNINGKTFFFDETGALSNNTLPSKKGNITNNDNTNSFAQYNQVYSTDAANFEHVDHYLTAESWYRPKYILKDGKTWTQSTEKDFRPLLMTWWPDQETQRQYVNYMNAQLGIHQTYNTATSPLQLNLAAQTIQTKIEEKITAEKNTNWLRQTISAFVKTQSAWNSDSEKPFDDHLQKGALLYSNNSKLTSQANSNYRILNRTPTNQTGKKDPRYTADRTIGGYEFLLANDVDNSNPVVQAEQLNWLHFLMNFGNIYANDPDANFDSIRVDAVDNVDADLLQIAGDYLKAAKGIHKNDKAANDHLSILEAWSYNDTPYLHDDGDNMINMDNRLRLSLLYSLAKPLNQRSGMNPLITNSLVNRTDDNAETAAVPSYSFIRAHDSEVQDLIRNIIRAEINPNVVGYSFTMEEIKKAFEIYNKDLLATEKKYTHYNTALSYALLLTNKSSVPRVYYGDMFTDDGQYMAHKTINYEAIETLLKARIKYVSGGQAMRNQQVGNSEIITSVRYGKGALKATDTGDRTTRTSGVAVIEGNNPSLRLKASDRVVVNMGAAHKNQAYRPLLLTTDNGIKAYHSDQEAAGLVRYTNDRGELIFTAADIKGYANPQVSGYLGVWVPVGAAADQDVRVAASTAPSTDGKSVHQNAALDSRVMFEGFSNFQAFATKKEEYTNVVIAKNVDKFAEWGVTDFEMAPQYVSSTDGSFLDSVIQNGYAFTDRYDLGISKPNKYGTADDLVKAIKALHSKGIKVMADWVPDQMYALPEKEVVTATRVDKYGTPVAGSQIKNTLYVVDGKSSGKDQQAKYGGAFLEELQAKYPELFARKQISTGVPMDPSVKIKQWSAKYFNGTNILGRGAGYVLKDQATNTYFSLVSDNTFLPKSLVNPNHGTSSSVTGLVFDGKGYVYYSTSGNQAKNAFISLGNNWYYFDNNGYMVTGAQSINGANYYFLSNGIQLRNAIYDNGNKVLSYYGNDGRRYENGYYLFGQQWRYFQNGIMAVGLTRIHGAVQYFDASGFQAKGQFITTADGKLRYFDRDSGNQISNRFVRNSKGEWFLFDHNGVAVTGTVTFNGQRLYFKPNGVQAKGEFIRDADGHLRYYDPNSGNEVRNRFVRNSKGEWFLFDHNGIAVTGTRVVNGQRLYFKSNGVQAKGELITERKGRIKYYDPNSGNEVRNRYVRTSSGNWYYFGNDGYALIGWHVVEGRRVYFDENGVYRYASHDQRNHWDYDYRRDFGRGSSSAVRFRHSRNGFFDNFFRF
compound,measurement,setting,value
NC(=O)c1ccccc1NC(=O)c1cc2cc([N+](=O)[O-])ccc2s1 [#G43],inhibition of GtfC activity (ImageJ band intensity),GtfC,80%
same,inhibition of Aggregatibacter actinomycetemcomitans growth,[1],no significant inhibition

# — US11866416B2, “Streptococcus mutans glucosyl transferase inhibitors for dental caries therapy” (UAB Research Foundation, priority 2018, dated 2024)
